In patent publication US11634393B2, “Substituted tolyl fungicides” (FMC CORPORATION, priority 2018, dated 2023):

What was measured:
[1] = test system: Blumeria graminis f. sp. tritici; experiment: Test C: wheat powdery mildew, spray on wheat seedlings, disease control rating; format: in vivo; details: 192 h, 100 = 100% disease control, 0 = no disease control relative to the controls; for pest or weed control at 10 ppm: Rate 10 ppm; for pest or weed control at 250 ppm: Rate 250 ppm
Source text: (§1) General protocol for preparing test suspensions for Tests A-F: the test compounds were first dissolved in acetone in an amount equal to 3% of the final volume and then suspended at the desired concentration (in ppm) in acetone and purified water (50/50 mix by volume) containing 250 ppm of the surfactant PEG400 (polyhydric alcohol esters). The resulting test suspensions were then used in Tests A-F.
The test suspension was sprayed to the point of run-off on wheat seedlings. The following day the seedlings were inoculated with a spore dust of Blumeria graminis f. sp. tritici, (also known as Erysiphe graminis f. sp. tritici, the causal agent of wheat powdery mildew) and incubated in a growth chamber at 20° C. for 8 days, after which time visual disease ratings were made.
(§2) A rating of 100 indicates 100% disease control and a rating of 0 indicates no disease control (relative to the controls). A dash (-) indicates the compound was not tested.

[2] = test system: Puccinia recondita f. sp. tritici; experiment: Test B: wheat leaf rust, spray on wheat seedlings, disease control rating; format: in vivo; details: Puccinia recondita, 192 h, 100 = 100% disease control, 0 = no disease control relative to the controls; for pest or weed control at 10 ppm: Rate 10 ppm; for pest or weed control at 250 ppm: Rate 250 ppm
Outline: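 Compound in acetone (3% of final volume) was suspended at the stated ppm in acetone/water 50/50 with 250 ppm PEG400 and sprayed to run-off on wheat seedlings. Puccinia recondita spores were inoculated next day, then 24 h saturated atmosphere at 20 °C and 7 days at 20 °C. Rated 0–100% disease control versus controls.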

Botrytis cinerea = experiment: Test E: tomato Botrytis, spray on tomato seedlings, disease control rating; format: in vivo; details: 100 = 100% disease control, 0 = no disease control relative to the controls; for pest or weed control at 10 ppm: Rate 10 ppm; for pest or weed control at 250 ppm: Rate 250 ppm
Source text: as §1
The test suspension was sprayed to the point of run-off on tomato seedlings. The following day the seedlings were inoculated with a spore suspension of Botrytis cinerea (the causal agent of tomato Botrytis) and incubated in a saturated atmosphere at 20° C. for 48 h, and then moved to a growth chamber at 24° C. for 3 days, after which time visual disease ratings were made.
as §2

Zymoseptoria tritici = experiment: Test A: wheat leaf blotch, spray on wheat seedlings, disease control rating; format: in vivo; details: 100 = 100% disease control, 0 = no disease control relative to the controls; for pest or weed control at 10 ppm: Rate 10 ppm; for pest or weed control at 250 ppm: Rate 250 ppm
Source text: as §1
The test solution was sprayed to the point of run-off on wheat seedlings. The following day the seedlings were inoculated with a spore suspension of Zymoseptoria tritici (the causal agent of wheat leaf blotch) and incubated in a saturated atmosphere at 24° C. for 48 h, and then moved to a growth chamber at 20° C. for 17 days, after which time disease ratings were made.
as §2

Phakopsora pachyrhizi = experiment: Test D: Asian soybean rust, spray on soybean seedlings, disease control rating; format: in vivo; details: Phakopsora pachyrhizi, 216 h, 100 = 100% disease control, 0 = no disease control relative to the controls; for pest or weed control at 10 ppm: Rate 10 ppm; for pest or weed control at 250 ppm: Rate 250 ppm
Outline: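 Soybean seedlings sprayed to run-off with compound suspension (ppm, in 50/50 acetone/water with 250 ppm PEG400), inoculated next day with P. pachyrhizi spores, held 24 h saturated at 22°C then 8 days at 22°C. Visual rating 0-100% disease control relative to controls.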

Compound	pest or weed control at 10 ppm [1] [%]	pest or weed control at 10 ppm [2] [%]	pest or weed control at 10 ppm (Botrytis cinerea) [%]	pest or weed control at 10 ppm (Zymoseptoria tritici) [%]	pest or weed control at 10 ppm (Phakopsora pachyrhizi) [%]	melting point [°C]	pest or weed control at 250 ppm [1] [%]	pest or weed control at 250 ppm [2] [%]	pest or weed control at 250 ppm (Botrytis cinerea) [%]	pest or weed control at 250 ppm (Zymoseptoria tritici) [%]	pest or weed control at 250 ppm (Phakopsora pachyrhizi) [%]
COC(=O)NCc1cc(-c2ccn(-c3c(F)cc([N+](=O)[O-])cc3F)n2)ccc1C [Compound 1, methyl N-[[5-[1-(2,6-difluoro-4-nitrophenyl)-1H-pyrazol-3-yl]-2-methylphenyl]methyl]carbamate]	0	68	0	0	44						
COC(=O)NCc1cc(-c2ccn(-c3c(F)cc(C#N)cc3F)n2)ccc1C [Compound 2]	0	68	0	13	100	171 to 174					
COC(=O)NCc1cc(-c2ccn(-c3c(F)cc(OC)cc3F)n2)ccc1C [Compound 3, methyl N-[[5-[1-(2,6-difluoro-4-methoxyphenyl)-1H-pyrazol-3-yl]-2-methylphenyl]methyl]carbamate]	79	100	45	50	100						
COC(=O)NCc1cc(-c2ccn(-c3c(F)cc(Cl)cc3F)n2)ccc1C [Compound 6, methyl N-[[5-[1-(4-chloro-2,6-difluorophenyl)-1H-pyrazol-3-yl]-2-methylphenyl]methyl]carbamate]	0	98	0	7	100	148 to 149					
COC(=O)NCc1cc(-c2ccn(-c3c(F)cc(OC(F)F)cc3F)n2)ccc1C [Compound 15, methyl N-[[5-[1-[4-(difluoromethoxy)-2,6-difluorophenyl]-1H-pyrazol-3-yl]-2-methylphenyl]methyl]carbamate]	69	99	0	0	100	102 to 103					
COC(=O)NCc1cc(-c2ccn(-c3c(F)cc(C(C)C)cc3F)n2)ccc1C [Compound 63, methyl N-[[5-[1-[2,6-difluoro-4-(1-methylethyl)phenyl]-1H-pyrazol-3-yl]-2-methylphenyl]methyl]carbamate]	98	100	0	26	100						
COC(=O)NCc1cc(-c2ccn(-c3c(F)cc(C(F)(F)F)cc3F)n2)ccc1C [Compound 64, methyl N-[[5-[1-[2,6-difluoro-4-(trifluoromethyl)phenyl]-1H-pyrazol-3-yl]-2-methylphenyl]methyl]carbamate]	89	100	0	0	100	106 to 108					
COC(=O)NCc1cc(-c2ncn(-c3c(F)cc([N+](=O)[O-])cc3F)n2)ccc1C [Compound 107]						179 to 183	43	80	0	28	0
COC(=O)NCc1cc(-c2cnn(-c3c(F)cc([N+](=O)[O-])cc3F)n2)ccc1C [Compound 118, methyl N-[[5-[2-(2,6-difluoro-4-nitrophenyl)-2H-1,2,3-triazol-4-yl]-2-methylphenyl]methyl]carbamate]							0	0	0	1	0
COC(=O)NCc1cc(-c2cn(-c3c(F)cc(F)cc3Cl)nn2)ccc1C [Compound 122]						125 to 129	0	99	0	71	100
